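Growth conditions: 96-well plates. Treatment: test compound, 48 hours, 5 concentrations. Analysis: linear interpolation between bracketing concentrations; unreached endpoints set to highest concentration. The concentration for 50% growth inhibition is given as GI50.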 Calls of active or inactive are those of the source. Rule as the data show it: active = GI50 up to about 1.1 µM and inactive = higher.
Columns and labels:
Assay in all cases: DTP human tumour cell line panel, 48 h
RPMI-8226 = system: RPMI-8226
DU-145 = system: DU-145
NCI-H226 = system: NCI-H226
CAKI-1 = system: CAKI-1
NCI-H522 = system: NCI-H522
SF-295 = system: SF-295
MOLT-4 = system: MOLT-4
SK-MEL-5 = system: SK-MEL-5
NCI-H460 = system: NCI-H460
OVCAR-5 = system: OVCAR-5
UO-31 = system: UO-31
SK-MEL-28 = system: SK-MEL-28
HCT-15 = system: HCT-15
IGROV-1 = system: IGROV-1
SK-MEL-2 = system: SK-MEL-2
MDA-N = system: MDA-N
SNB-75 = system: SNB-75
MDA-MB-231 = system: MDA-MB-231
MDA-MB-435 = system: MDA-MB-435
CCRF-CEM = system: CCRF-CEM

SMILES | GI50 (RPMI-8226) | GI50 (DU-145) | GI50 (NCI-H226) | GI50 (CAKI-1) | GI50 (NCI-H522) | GI50 (SF-295) | GI50 (MOLT-4) | GI50 (SK-MEL-5) | GI50 (NCI-H460) | GI50 (OVCAR-5) | GI50 (UO-31) | GI50 (SK-MEL-28) | GI50 (HCT-15) | GI50 (IGROV-1) | GI50 (SK-MEL-2) | GI50 (MDA-N) | GI50 (SNB-75) | GI50 (MDA-MB-231) | GI50 (MDA-MB-435) | GI50 (CCRF-CEM)
Nc1ccccc1SC(C[N+](=O)[O-])c1ccc2c(c1)OCO2 (centres undefined) | 1.22 µM (inactive) | 2.62 µM (inactive) | 11.2 µM (inactive) | 13.7 µM (inactive) | 14.1 µM (inactive) | 4.89 µM (inactive) | 2.3 µM (inactive) | 3.26 µM (inactive) | 2.12 µM (inactive) | 3.65 µM (inactive) | 1.87 µM (inactive) | 3.4 µM (inactive) | 3.01 µM | 1.51 µM (inactive) | 14.6 µM (inactive) | 1.75 µM (inactive) | 2.34 µM (inactive) | 7.1 µM (inactive) | 2.32 µM (inactive) | 
C=CC(=O)N1C/C(=C\c2ccc(N(C)C)cc2)C(=O)/C(=C/c2ccc(N(C)C)cc2)C1 |  | > 100 µM (inactive) | > 100 µM (inactive) | > 100 µM (inactive) |  | 18.5 µM (inactive) | 25.8 µM (inactive) | > 100 µM (inactive) | > 100 µM (inactive) | > 100 µM (inactive) | > 100 µM (inactive) | > 100 µM (inactive) | 18.2 µM | > 100 µM (inactive) | > 100 µM (inactive) | 17.8 µM (inactive) | > 100 µM (inactive) | > 100 µM (inactive) | 87.5 µM (inactive) | 
O=[N+]([O-])C(/C=C(\Cl)[N+](=O)[O-])=C(Nc1ccccc1)Nc1ccccc1 | 2.28 µM (inactive) | 17.1 µM (inactive) |  | 13.7 µM (inactive) | 2.21 µM (inactive) | 17.3 µM (inactive) | 1.75 µM (inactive) | 13.3 µM (inactive) | 16.4 µM (inactive) | 5.36 µM (inactive) | 12.1 µM (inactive) | 9.86 µM (inactive) | 8.26 µM | 17.2 µM (inactive) | 16.4 µM (inactive) | 5.58 µM (inactive) | 1.26 µM (inactive) | 10.7 µM (inactive) | 5 µM (inactive) | 1.44 µM (inactive)
CCCC(=O)OC(OC(=O)CCC)c1ccc([N+](=O)[O-])o1 | 22.6 µM (inactive) | 36.7 µM (inactive) |  | 17.7 µM (inactive) | 13.4 µM (inactive) | > 100 µM (inactive) | 31.1 µM (inactive) | 32.4 µM (inactive) | > 100 µM (inactive) | 21.8 µM (inactive) | 21.1 µM (inactive) | 20.4 µM (inactive) | 15.7 µM | 14.8 µM (inactive) | 22.8 µM (inactive) | 20.1 µM (inactive) | > 100 µM (inactive) | 27.5 µM (inactive) | 20.7 µM (inactive) | 28.2 µM (inactive)
C=CCc1ccccc1C1CC2(C(=O)OC)OC1C(C(=O)OC)=C2C(=O)OC (centres undefined) | > 10 µM (inactive) | > 10 µM (inactive) | > 10 µM (inactive) | > 10 µM (inactive) |  | > 10 µM (inactive) | > 10 µM (inactive) | > 10 µM (inactive) | > 10 µM (inactive) | > 10 µM (inactive) | > 10 µM (inactive) | > 10 µM (inactive) | > 10 µM | > 10 µM (inactive) | > 10 µM (inactive) | > 10 µM (inactive) |  | > 10 µM (inactive) | > 10 µM (inactive) | > 10 µM (inactive)
COc1ccc(C[n+]2cccc(O)c2)cc1 |  | > 100 µM (inactive) | > 100 µM (inactive) |  |  | > 100 µM (inactive) | > 100 µM (inactive) | > 100 µM (inactive) | > 100 µM (inactive) | > 100 µM (inactive) | > 100 µM (inactive) | > 100 µM (inactive) | > 10 µM | > 100 µM (inactive) | > 100 µM (inactive) | > 100 µM (inactive) |  | > 100 µM (inactive) | > 100 µM (inactive) | > 100 µM (inactive)
CCOC(=O)C1=COC(C)(CCc2ccccc2)CC1=O (centres undefined) | 41.9 µM (inactive) | > 100 µM (inactive) |  | > 100 µM (inactive) | 24.7 µM (inactive) | > 100 µM (inactive) | 43.2 µM (inactive) | 94 µM (inactive) | 92.5 µM (inactive) | > 100 µM (inactive) | 91.2 µM (inactive) | > 100 µM (inactive) | > 100 µM |  | > 100 µM (inactive) | 87.7 µM (inactive) | > 100 µM (inactive) | 82.6 µM (inactive) | 51.8 µM (inactive) | 
O=[N+]([O-])c1ccc(NN/N=N/c2ccc(-c3nc4ccccc4[nH]3)cc2)c([N+](=O)[O-])c1 |  | 66.1 µM (inactive) | 43.2 µM (inactive) | 23.2 µM (inactive) | 17.9 µM (inactive) | 4.2 µM (inactive) | 5.14 µM (inactive) | 10.4 µM (inactive) | 9.44 µM (inactive) | > 100 µM (inactive) | 84.1 µM (inactive) | > 100 µM (inactive) | 19.7 µM | 7.33 µM (inactive) | 29 µM (inactive) | 39.9 µM (inactive) | 96.6 µM (inactive) | > 100 µM (inactive) | 54 µM (inactive) | 9.04 µM (inactive)

Source: ChEMBL document CHEMBL1201862, “PubChem BioAssay data set” (2004)
